From patent publication US10870647B2, “Imidazopyridine derivative, method for preparing same, and pharmaceutical composition containing same as active ingredient for preventing or treating cancer” (DAEGU-GYEONGBUK MEDICAL INNOVATION FOUNDATION, priority 2016, dated 2020) come the findings set out here.

The structures appear in SMILES notation.

In one assay the test system is A375. The experiment in a line: Cancer cell proliferation inhibition, CCK-8, 72 hours. The class given is cell-based. Particulars: Homo sapiens, A-375, 72 h. The method, boiled down: (§1)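 A375 cells (2×10^3/well) attached overnight, then received 9 three-fold dilutions (0.0015-10 μM). K562 and Ba/F3-T315I (1×10^4/well) were given 9-point series (3-fold and 5-fold respectively), final 0-10 μM. After 72 h at 37°C, CCK-8 was added for 2 h; blank-subtracted OD450 gave IC50.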

Another assay addresses T1, T315I (Ba/F3) (Homo sapiens, UniProt P00519, T315I, cells depend on it).
T1 construct: fused on or other part: P11274 (Breakpoint cluster region protein)
Described as above. The note with it: read-out: T315I (Ba/F3) IC50. The class given is cell-based. The method, boiled down: as §1

Another assay deals with K562. The assay is described as above. It is filed as cell-based. The note with it: Homo sapiens, K562, 72 h. A digest of the protocol: as §1
The next assay relates to MDA-MB-231. The experiment in a line: Real time cell proliferation, IncuCyte ZOOM, 72 hours. It is filed as cell-based. Particulars: Homo sapiens, MDA-MB-231, 72 h.
Another assay has as its target T2, RET (Homo sapiens, UniProt P07949).
T2 construct: purchased Reaction Biology Co
The experiment in a line: Enzyme inhibitory activity (Kd), Reaction Biology Co. It is filed as binding. The protocol: (§2) The following experiment was performed to evaluate the enzyme inhibitory activity of the compound of the present invention.
(§3) Particularly, the enzyme inhibitory activity of the compound of the present invention against BLK, CDK11, CHEK1, CSF1R, EPHB6, FGFR4, FGR, FLT3, FYN, GCN2 (Kin.Dom.2, S808G), HCK, JAK2 (JH1domain-catalytic), LCK, LOK, LYN, RET, RET (V804M), SRC and YES was investigated by Reaction Biology Co. The results are shown in Table 2 below.

Another assay concerns the target T3, RET(V804M) (Homo sapiens, UniProt P07949, V804M).
T3 construct: purchased Reaction Biology Co
The assay is described as above. The class given is binding. The protocol:
as §2, §3

Assay [1] has as its target T4, JAK2(JH1domain-catalytic) (Homo sapiens, UniProt O60674).
T4 construct: JAK2 (JH1domain-catalytic); purchased Reaction Biology Co
The description is as above. It is filed as binding. The protocol: as §2, §3

The next assay concerns SK-MEL-28. The experiment in a line: Cancer cell proliferation inhibition, MTS assay, 72 hours. The class given is cell-based. Particulars: Homo sapiens. The method, boiled down:
(§4)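 Cells seeded at 3,000/well were cultured 24 h, then exposed 72 h to serially diluted compound from 50 μM top (0.05% DMSO). Viability was read by MTS/PMS at OD450 after 2 h at 37°C. IC50 was taken as 50% proliferation inhibition versus solvent control, from three data sets.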
Background: Formazan colour is commonly taken as a measure of viable cells.

For a further assay, the system named is RET (LC2/ad-CDC6). The assay is described as above. The class given is cell-based. Particulars: 72 h. The method, boiled down:
as §4

The next assay relates to Huh7. The description is as above. It is filed as cell-based. Particulars: Homo sapiens, Huh-7. A digest of the protocol:
as §4

The subject of a further assay is FYN (MCP-1). The description is as above. The class given is cell-based. The method, boiled down:
as §4

Another assay relates to M-NFS-60. The experiment in a line: Cancer cell proliferation inhibition, CCK-8, 72 hours. The class given is cell-based. The method, boiled down:
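Cells were grown in RPMI with 10% FBS, 0.05 mM 2-mercaptoethanol and human M-CSF, and seeded at 20000 cells/well. Compounds were added from a 3-fold DMSO dilution series topping at 1968 nM (dilution-plate concentration; 11 points including DMSO control). After 72 h at 37 °C, CCK-8 was added for 2 h and OD450 read.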

The target of another assay is T5, FGFR4 (Homo sapiens, UniProt P22455).
T5 construct: purchased Reaction Biology Co
T5 sequence (P22455 22-802): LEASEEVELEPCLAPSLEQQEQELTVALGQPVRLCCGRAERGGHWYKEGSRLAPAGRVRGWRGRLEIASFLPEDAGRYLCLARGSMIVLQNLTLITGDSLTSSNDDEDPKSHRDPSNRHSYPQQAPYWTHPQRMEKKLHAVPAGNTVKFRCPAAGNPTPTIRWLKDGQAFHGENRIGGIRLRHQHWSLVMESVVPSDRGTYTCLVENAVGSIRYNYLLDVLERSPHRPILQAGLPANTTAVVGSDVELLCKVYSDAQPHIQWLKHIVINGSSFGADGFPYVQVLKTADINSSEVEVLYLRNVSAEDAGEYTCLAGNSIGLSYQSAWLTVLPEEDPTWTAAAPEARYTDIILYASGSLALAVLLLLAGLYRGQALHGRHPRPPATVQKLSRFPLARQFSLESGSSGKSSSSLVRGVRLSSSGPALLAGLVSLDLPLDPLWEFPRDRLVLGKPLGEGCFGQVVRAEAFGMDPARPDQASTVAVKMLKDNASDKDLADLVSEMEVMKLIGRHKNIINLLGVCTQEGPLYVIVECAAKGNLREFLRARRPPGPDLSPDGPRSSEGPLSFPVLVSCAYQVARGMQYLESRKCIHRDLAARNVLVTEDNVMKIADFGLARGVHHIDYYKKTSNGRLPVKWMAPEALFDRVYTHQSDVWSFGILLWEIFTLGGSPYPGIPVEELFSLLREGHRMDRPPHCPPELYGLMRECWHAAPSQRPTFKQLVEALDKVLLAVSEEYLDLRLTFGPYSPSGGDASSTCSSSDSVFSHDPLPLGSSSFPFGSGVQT
The experiment in a line: Enzyme inhibitory activity (Kd), Reaction Biology Co. The class given is binding. The protocol: as §2, §3

Another assay concerns GIST-R3. The experiment in a line: Cancer cell proliferation inhibition, cell viability after 72 hours. It is filed as cell-based. Particulars: imatinib/sunitinib-resistant, GIST patient originated. A digest of the protocol:
(§5)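 GIST-T1/816, GIST-430 and GIST-430/654 seeded at 2×10^4/100 μl; GIST-R3 (patient-derived, imatinib/sunitinib-resistant) likewise. Compounds added next day at 8 concentrations; viability after 72 hours by EZ-cytox or CellTiter-Glo, as % of vehicle-treated cells, IC50 from curves; two independent experiments.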

Another assay concerns GIST430. Described as above. It is filed as cell-based. Particulars: Homo sapiens, imatinib-sensitive. A digest of the protocol:
as §5

The test system of the next assay is GIST-R1. Described as above. The class given is cell-based. Particulars: imatinib-resistant, GIST patient originated.
A further assay deals with GIST430/654. Described as above. It is filed as cell-based. The note with it: GIST-430/654, imatinib-resistant. The method, boiled down:
as §5

The next assay relates to GIST-T1/816. Described as above. It is filed as cell-based. The note with it: Homo sapiens, GISTT1, imatinib-resistant. The method, boiled down: as §5
Another assay concerns GIST-T1. Described as above. Particulars: Homo sapiens, GISTT1, imatinib-sensitive. It is filed as cell-based.

T4 sequence (O60674 849-1124 limits assumed): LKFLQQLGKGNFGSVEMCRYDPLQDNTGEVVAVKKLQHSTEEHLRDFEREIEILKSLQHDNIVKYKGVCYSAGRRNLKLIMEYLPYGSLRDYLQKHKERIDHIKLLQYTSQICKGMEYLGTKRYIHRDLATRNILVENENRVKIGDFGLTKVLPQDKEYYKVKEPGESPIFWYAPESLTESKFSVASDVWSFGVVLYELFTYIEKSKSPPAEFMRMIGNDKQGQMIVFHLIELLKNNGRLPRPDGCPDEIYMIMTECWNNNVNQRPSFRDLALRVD
T2 sequence (P07949 29-1114): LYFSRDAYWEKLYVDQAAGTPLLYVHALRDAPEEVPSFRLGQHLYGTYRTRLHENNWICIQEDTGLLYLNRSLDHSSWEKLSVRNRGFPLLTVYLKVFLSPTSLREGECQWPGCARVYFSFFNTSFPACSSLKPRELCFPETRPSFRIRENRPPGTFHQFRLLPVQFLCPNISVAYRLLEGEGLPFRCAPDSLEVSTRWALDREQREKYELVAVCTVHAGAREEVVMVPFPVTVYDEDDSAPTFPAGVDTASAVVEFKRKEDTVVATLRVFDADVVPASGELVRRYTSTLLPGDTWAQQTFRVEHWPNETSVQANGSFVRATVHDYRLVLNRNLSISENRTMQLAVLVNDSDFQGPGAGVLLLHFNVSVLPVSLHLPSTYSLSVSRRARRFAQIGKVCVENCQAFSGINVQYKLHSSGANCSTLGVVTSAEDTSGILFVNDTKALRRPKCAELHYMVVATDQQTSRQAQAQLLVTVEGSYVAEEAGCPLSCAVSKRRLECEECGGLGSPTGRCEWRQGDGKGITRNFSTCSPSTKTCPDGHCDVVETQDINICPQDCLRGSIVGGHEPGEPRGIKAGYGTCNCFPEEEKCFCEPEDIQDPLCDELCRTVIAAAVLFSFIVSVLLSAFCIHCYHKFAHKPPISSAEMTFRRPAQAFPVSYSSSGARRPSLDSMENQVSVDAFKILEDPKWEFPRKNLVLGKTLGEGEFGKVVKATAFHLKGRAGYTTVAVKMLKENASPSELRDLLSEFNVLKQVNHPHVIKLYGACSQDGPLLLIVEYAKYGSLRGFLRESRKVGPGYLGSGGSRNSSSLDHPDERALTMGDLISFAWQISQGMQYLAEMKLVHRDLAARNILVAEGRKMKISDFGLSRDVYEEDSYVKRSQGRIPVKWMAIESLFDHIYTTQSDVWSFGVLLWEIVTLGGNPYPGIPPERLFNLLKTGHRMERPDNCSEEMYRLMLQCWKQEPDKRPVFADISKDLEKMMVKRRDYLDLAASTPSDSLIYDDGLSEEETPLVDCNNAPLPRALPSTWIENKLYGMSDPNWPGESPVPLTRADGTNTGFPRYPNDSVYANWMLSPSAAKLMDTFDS
T3 sequence (P07949 29-1114 V804M): as the sequence (P07949 29-1114) above, with V776M counted along it

One may read the IC50 as the concentration that gives 50% inhibition. One may read the Kd as the concentration at which binding is half-saturated. The low end stands for tighter binding, the high end for weaker binding. Turning to `Cc1ccc(NC(=O)Nc2ccc(CN3CCN(C)CC3)c(C(F)(F)F)c2)cc1C#Cc1cnc2c(Nc3cnn(C(C)C)c3)cccn12` [Example 82, 1-(3-((8-((1-isopropyl-1H-pyrazol-4-yl)amino)imidazo[1,2-a]pyridin-3-yl)ethynyl)-4-methylphenyl)-3-(4-((4-methylpiperazin-1-yl)methyl)-3-(trifluoromethyl)phenyl)urea], the IC50 in the assay on A375 was 1820 nM; in the assay with K562, 15 nM; in the assay with MDA-MB-231, 1550 nM; with SK-MEL-28 it was 1120 nM; in the assay on RET (LC2/ad-CDC6) it was under 100 nM; in the assay on Huh7, 587 nM. Besides, the IC50 in the assay on FYN (MCP-1) is 1520 nM. The GI50 at T315I (Ba/F3) was 63 nM. Further, the Kd on RET stood at 14 nM; on RET(V804M) it was 29 nM; in [1] it was 2600 nM.

As to `Cc1ccc(NC(=O)c2ccc(CN3CCN(C)CC3)c(C(F)(F)F)c2)cc1C#Cc1cnc2c(Nc3cnn(C(C)C)c3)cccn12` [Example 77, N-(3-((8-((1-isopropyl-1H-pyrazol-4-yl)amino)imidazo[1,2-a]pyridin-3-yl)ethynyl)-4-methylphenyl)-4-((4-methylpiperazin-1-yl)methyl)-3-(trifluoromethyl)benzamide], the IC50 with M-NFS-60 is 180 nM; in the assay with A375 it was 412 nM; in the assay with K562 it was under 1 nM; with MDA-MB-231, 508 nM; with SK-MEL-28, 1090 nM; in the assay on RET (LC2/ad-CDC6), over 10 nM. Besides, the figures for the concentration for half-maximal inhibition (IC50) in the assay on Huh7 and in the assay on FYN (MCP-1) were 126 nM and 5080 nM, respectively. Moreover, the GI50 at T315I (Ba/F3) turned out to be 84.6 nM. Also, the Kd on FGFR4 was 94 nM; on RET it was 9.3 nM; on RET(V804M), 19 nM; in assay [1], 340 nM.

With `Cc1cn(-c2cc(NC(=O)c3ccc(C)c(C#Cc4cnc5c(Nc6cnn(C7CCN(C)CC7)c6)cccn45)c3)cc(C(F)(F)F)c2)cn1` [Example 76], the IC50 with GIST-R3 worked out at 328 nM; in the assay on GIST430 it was 559 nM; in the assay on GIST-R1 it was 25400 nM; in the assay with GIST430/654 it was 7000 nM; in the assay on GIST-T1/816 it was 13100 nM; in the assay with GIST-T1, 456 nM.
